Measured values as given in US20260256145A1, “IRON AGENT FOR GROWING ANIMALS AND PLANTS, METHOD FOR PRODUCING THE SAME, AND IRON SUPPLY PREPARATION FOR GROWING ANIMALS AND PLANTS” (Sobue Clay Co., Ltd., priority 2023, published 2026).

Key:
[1] = tested on: plants; test: Consideration of Use Examples 1 to 6: plant weight index versus no iron agent; type: in vivo; conditions: no irrigation with an iron agent = 100, based on Use Examples 1 to 6
Experimental: (§1) An aqueous solution of sodium ferrous citrate to be irrigated was prepared by adding 150 g of citric acid to 850 ml of tap water to produce citric acid water, then adding thereto 25 g of reduced iron powder, followed by stirring, and then adding to the resultant mixture 150 g of sodium hydrogen carbonate, followed by stirring and mixing.
The following consideration is made based on the results of Use Examples 1 to 6.
When the index in the case of no irrigation with an iron agent is 100, with respect to the plant's aboveground weight, it is 116 in the case of the irrigation with the aqueous solution of iron citrate and 209 in the case of the irrigation with the aqueous solution of sodium ferrous citrate, and with respect to the plant's root weight, it is 134 in the case of the irrigation with the aqueous solution of iron citrate and 464 in the case of the irrigation with the aqueous solution of sodium ferrous citrate.

[2] = Change of Fe2+ ion concentration of the aqueous solution in the production process; type: physicochemical; conditions: iron mixed with the citrate solution while stirring, FIGS. 1 to 4
Experimental: The aqueous solution of iron citrate is prepared by any one of the following methods: a method in which citric acid, solid iron and water are stirred and mixed together; a method in which solid iron is added to citric acid having been dissolved in water, followed by stirring and mixing; and a method in which solid iron and citric acid powder are added to a required amount of citric acid having been dissolved in water, followed by stirring and mixing while, if necessary, heating. To the thus obtained aqueous solution of iron citrate is mixed sodium hydrogen carbonate while, if necessary, heating, thereby producing an aqueous solution of sodium ferrous citrate. By the addition of sodium hydrogen carbonate, the aqueous solution of sodium ferrous citrate has been alkalized to have a pH value of from 5 to 8.
FIGS. 2 to 4 respectively show the change of the Fe^2+ ion concentration of aqueous iron agent solutions 1 to 3 for growth, each of which is produced by the above-mentioned method. […] Therefore, it is judged that the aqueous iron citrate solution is not suitable as an iron agent for growth.
In the cases of aqueous sodium ferrous citrate solutions 1 to 3 shown in FIGS. 2 to 4, the Fe^2+ ion concentration is confirmed to increase, differing from the case of the aqueous iron citrate solution shown in FIG. 1. […]

[3] = tested on: komatsuna (Japanese mustard spinach); test: Use Example 2: growth of komatsuna irrigated with iron agent; type: in vivo; conditions: irrigation once a week, after 23 days of cultivation, in comparison with the other plants
Experimental: as §1
(§2) Plants not irrigated with an iron agent (left side of the figure), plants irrigated with an aqueous solution of iron citrate (center of the figure), and plants irrigated with an aqueous solution of sodium citrate (right side of the figure) as the iron supply preparation for growth of the present application were provided, and the plants were cultivated while performing irrigation on the plants at a rate of once a week, and the growth conditions after 23 days of cultivation are shown. Each of the aqueous solution of iron citrate and the aqueous solution of sodium ferrous citrate was diluted 10000 times so that the total iron content was 15000 ppm, and the Fe^2+ content was 3000 ppm for iron citrate and 12500 ppm for sodium ferrous citrate.

[4] = tested on: okra; test: Use Example 3: growth of okra irrigated with iron agent; type: in vivo; conditions: irrigation once a week, after 19 days of cultivation, in comparison with the other plants
Experimental: as §1
as §2, with “19” for “23”

[5] = tested on: molokheiya; test: Use Example 1: growth of molokheiya irrigated with iron agent; type: in vivo; conditions: irrigation once a week, after 30 days of cultivation, in comparison with the other plants (no iron agent, iron citrate)
Experimental: as §1
as §2, with “30” for “23”

[6] = tested on: red leaf lettuce; test: Use Example 4: growth of red leaf lettuce irrigated with iron agent; type: in vivo; conditions: irrigation once a week, after 19 days of cultivation, in comparison with the other plants
Experimental: as §1
as §2, with “19” for “23”

[7] = tested on: parsley; test: Use Example 5: growth of parsley irrigated with iron agent; type: in vivo; conditions: irrigation once a week, after 19 days of cultivation, in comparison with the other plants
Experimental: as §1
as §2, with “19” for “23”

[8] = tested on: Italian parsley; test: Use Example 6: growth of Italian parsley irrigated with iron agent; type: in vivo; conditions: irrigation once a week, after 19 days of cultivation, in comparison with the other plants
Experimental: as §1
as §2, with “19” for “23”

Substance | index of the plant's aboveground weight [1] | index of the plant's root weight [1] | change of the Fe^2+ ion concentration of the aqueous solution [2] | rooting [3] | weight of the aboveground part [3] | rooting [4] | weight of the aboveground part [4] | rooting [5] | weight of the aboveground part [5] | rooting [6] | weight of the aboveground part [6] | rooting [7] | weight of the aboveground part [7] | rooting [8] | weight of the aboveground part [8]
iron citrate [reference compound] | 116 | 134 | not confirmed to increase |  |  |  |  |  |  |  |  |  |  |  | 
sodium ferrous citrate | 209 | 464 |  | improvement | increase | improvement | increase | improvement | increase | improvement | increase | improvement | increase | improvement | increase
